SMILES strings stand for the structures.

The first experiment deals with T1, CDK1/cyclinB1 (Homo sapiens, UniProt P06493).
T1 construct: made in house; host or cells: High Five insect cells (Trichoplusia ni), baculovirus coinfection
T1 sequence (P06493 whole entry): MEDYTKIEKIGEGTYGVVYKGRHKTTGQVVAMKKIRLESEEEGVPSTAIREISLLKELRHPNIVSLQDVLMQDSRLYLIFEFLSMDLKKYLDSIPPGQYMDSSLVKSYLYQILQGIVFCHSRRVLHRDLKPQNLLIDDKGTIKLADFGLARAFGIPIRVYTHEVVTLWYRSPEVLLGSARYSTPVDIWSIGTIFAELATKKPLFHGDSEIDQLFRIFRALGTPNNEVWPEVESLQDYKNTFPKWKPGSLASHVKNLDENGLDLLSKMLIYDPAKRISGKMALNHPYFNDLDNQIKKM
T1 sequence (P14635 whole entry partner): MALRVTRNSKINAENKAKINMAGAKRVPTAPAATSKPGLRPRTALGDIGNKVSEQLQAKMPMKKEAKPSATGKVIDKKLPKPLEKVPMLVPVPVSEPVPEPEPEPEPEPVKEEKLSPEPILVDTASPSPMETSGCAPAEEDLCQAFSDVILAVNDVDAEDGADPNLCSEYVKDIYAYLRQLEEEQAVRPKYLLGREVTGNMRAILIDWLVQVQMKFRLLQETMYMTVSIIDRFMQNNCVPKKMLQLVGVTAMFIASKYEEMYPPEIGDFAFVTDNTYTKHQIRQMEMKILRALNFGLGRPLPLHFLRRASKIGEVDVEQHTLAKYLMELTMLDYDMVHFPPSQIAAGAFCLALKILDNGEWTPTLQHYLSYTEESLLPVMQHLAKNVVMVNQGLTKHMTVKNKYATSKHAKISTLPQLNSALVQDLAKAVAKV
Description: Cyclin B1-CDK1 kinase inhibition test. The format is biochemical.
Conditions: not given
The method, then:
CDK4) were cloned by standard methods using RT-PCR, and cloned into a transfer vector (cyclin in pAcG2T made by Pharmingen, CDKs in p2Bac made by Invitrogen) for the baculovirus system. […] After thawing the cells were resuspended in lysing buffer (50 mM HEPES pH 7.5, 10 mM MgCl2, 1 mM DTT, 5 μg/ml leupeptin, 5 μg/ml aprotinin, 100 μM NaF, 100 μM PMSF, 10 mM β-glycerolphosphate, 100 μM Na3VO4, 30 mM nitrophenylphosphate, 17.5 ml of lysing buffer per 10^8 cells) and incubated on ice for 30 min. […] Cyclin D1-CDK4 was purified by means of a GST-tag on cyclin D1 and then using glutathione beads (total protein about 0.2 mg/ml). All the kinase tests were carried out in 96-well microtitre plates (Greiner PS) in a final volume of 60 μl. […] As a negative control the kinase reaction was carried out in the absence of the substrate histone H1. As a positive control the kinase reaction was carried out in the absence of a test substance. As an internal control 30 μM and 300 μM (final concentration) of the kinase inhibitor olomoucin (Alexis) were used. […] The kinase reaction is started by the addition of 10 μl of ATP mix (0.045 mM ATP, 0.5 μCi ^33P-ATP in kinase buffer) and incubated for 30 min at 30° C. and 600 rpm in a shaking incubator. After incubation the plates were placed on ice and the proteins were precipitated by the addition of 125 μl of ice-cold 5% trichloroacetic acid. After 15 min on ice the precipitates were transferred onto Packard Unifilter 96 GF/B plates with the Packard Harvester System, and collected by vacuum filtration. The precipitates were washed 4 times with dist. H2O at ambient temperature. The filter plates were then dried at 60° C. and 50 μl of scintillation liquid were added to each well (Ultima Gold, Packard). The plate was sealed up with Sealing Tape and after 1 h measured in a scintillation measuring apparatus (Micro Beta made by Wallac).
`CN1CCC(CNc2nc(Nc3ccc(Cl)c(Cl)c3)ncc2C(F)(F)F)CC1` [Example 1(030)]: the IC50 is less than 0.1 µM.

The experiment is the same for the next values; noted with them: CDK1 tests (Example 13); recombinant cyclin B1/CDK1, substrate histone H1; read-out: CDK1/cyclinB1 IC50 value.
With `O=[N+]([O-])c1cnc(NCc2ccccc2Br)nc1N1CC[S+]([O-])CC1` [Example 1(628), 2-(2-bromo-benzylamino)-4-(S-oxido-thiomorpholino)-5-nitro-pyrimidine], the IC50 was less than 0.1 µM. For `NC(=O)c1ccc(Nc2ncc(Br)c(NCCCN3CCCC3=O)n2)cc1` [Example 1(662)], the IC50 was less than 0.1 µM. As for `CN(C)S(=O)(=O)c1ccc(Nc2ncc(Cl)c(NCCCN3CCCC3=O)n2)cc1` [Example 2(109), 4-{5-Chloro-4-[3-(2-oxo-pyrrolidin-1-yl)-propylamino]-pyrimidin-2-ylamino}-N,N-dimethyl-phenylsulphonamide], the IC50 was less than 0.1 µM. Still for that read-out and setting: for `CC(=O)NCCNc1nc(Nc2ccc(NS(=O)(=O)c3ccccc3)cc2)ncc1C(F)(F)F` [Example 10(016), N-(2-[2-(4-phenylsulphonylamido-phenylamino)-5-trifluoromethyl-pyrimidin-4-ylamino]-ethyl)-acetamide] the value was less than 0.1 µM; for `NCC1CCN(c2nc(Nc3ccc(Br)cc3)ncc2C(F)(F)F)CC1` [Example 1(043)], less than 0.1 µM.

As to `NCC1CCC(CNc2nc(Nc3ccccc3)ncc2C(F)(F)F)CC1` (stereo not drawn) [Example 1(033), 2-phenylamino-4-(4-aminomethyl-cyclohexylmethylamino)-5-trifluoromethyl-pyrimidine], the IC50 is less than 0.1 µM. With `CC(C)NC(=O)NCCCNc1nc(Nc2ccc3cnn(C)c3c2)ncc1C(F)(F)F` [Example 7(036), 1-isopropyl-3-{3-[2-(1-methyl-1H-indazol-6-ylamino)-5-trifluoromethyl-pyrimidin-4-ylamino]-propyl}-urea], the IC50 was less than 0.1 µM. `CC(CC(=O)O)Nc1nc(Nc2ccc(Cl)c(Cl)c2)ncc1C(F)(F)F` (stereo not drawn) [Example 1(388), 2-(3,4-dichlorophenylamino)-4-(1-carboxy-2-propylamino)-5-trifluoromethyl-pyrimidine]: the IC50 is less than 0.1 µM. Consider `NCCCOCCCNc1nc(Nc2ccc(Cl)c(Cl)c2)ncc1C(F)(F)F` [Example 1(073)], for which the IC50 was less than 0.1 µM.

Consider `CC(=O)N(C)CCN(C)c1nc(Nc2ccc(S(=O)(=O)N(C)C)cc2)ncc1C(F)(F)F` [Example 1(690), N-(2-{[2-(4-dimethylsulphamoyl-phenylamino)-5-trifluoromethyl-pyrimidin-4-yl]-methyl-amino}-ethyl)-N-methyl-acetamide], for which the IC50 is less than 0.1 µM. As for `O=C(O)c1ccc(Nc2ncc(C(F)(F)F)c(N3CCc4[nH]cnc4C3)n2)cc1` [Example 1(017), 2-(4-carboxy-phenylamino)-4-(1,4,6,7-tetrahydro-imidazo[4,5-c]pyridin-5-yl)-5-trifluoromethyl-pyrimidine], the IC50 was less than 0.1 µM. On the same count and under the same terms, for `NCC1CCC(CNc2nc(Nc3ccc(Cl)cc3)ncc2C(F)(F)F)CC1` (stereo not drawn) [Example 1(107), 2-(4-chloro-phenylamino)-4-(4-aminomethyl-cyclohexylmethylamino)-5-trifluoromethyl-pyrimidine] the value was less than 0.1 µM; for `CC(=O)NCCCNc1nc(Nc2ccc(C(N)=O)cc2)ncc1C(F)(F)F` [Example 7(027), 4-[4-(3-acetylamino-propylamino)-5-trifluoromethyl-pyrimidin-2-ylamino]-benzamide], less than 0.1 µM; for `CC(C)C(=O)NCCCNc1nc(Nc2ccc3cnn(C)c3c2)ncc1C(F)(F)F` [Example 7(002), N-{3-[2-(1-methyl-1H-indazol-6-ylamino)-5-trifluoromethyl-pyrimidin-4-ylamino]-propyl}-isobutyramide], less than 0.1 µM. As to `CN(C)C1CCC(Nc2nc(Nc3ccc(Cl)c(Cl)c3)ncc2C(F)(F)F)CC1` (stereo not drawn) [Example 1(120), 2-(3,4-dichlorophenylamino)-4-(4-dimethylamino-cyclohexylamino)-5-trifluoromethyl-pyrimidine], the IC50 is less than 0.1 µM.

On to `NC1CCCC(Nc2nc(Nc3cc(Cl)cc(Cl)c3)ncc2C(F)(F)F)C1` (stereo not drawn) [Example 1(020), 2-(3,5-dichloro-phenylamino)-4-(3-amino-cyclohexylamino)-5-trifluoromethyl-pyrimidine], for which the IC50 was less than 0.1 µM. Turning to `FC(F)(F)c1cnc(Nc2ccc(Br)cc2)nc1N1CCc2[nH]cnc2C1` [Example 1(019), 2-(4-bromo-phenylamino)-4-(1,4,6,7-tetrahydro-imidazo[4,5-c]pyridin-5-yl)-5-trifluoromethyl-pyrimidine], the IC50 was less than 0.1 µM. On to `CC(=O)NCCNc1nc(Nc2cccc([N+](=O)[O-])c2)ncc1C(F)(F)F` [Example 2(010), 2-(3-Nitro-phenylamino)-4-(2-acetylamino-ethylamino)-5-trifluoromethyl-pyrimidine], for which the IC50 is less than 0.1 µM.

As for `O=C1CCCN1CCCNc1nc(Nc2cccc(CNCC(F)(F)F)c2)ncc1C(F)(F)F` [Example 11(034), 1-[3-(2-{3-[(2,2,2-Trifluoro-ethylamino)-methyl]-phenylamino}-5-trifluoromethyl-pyrimidin-4-ylamino)-propyl]-pyrrolidin-2-one], the IC50 was less than 0.1 µM. Turning to `Clc1cnc(Nc2ccc3cn[nH]c3c2)nc1N1CCc2[nH]cnc2C1` [Example 2(134), [5-Chloro-4-(1,4,6,7-tetrahydro-imidazo[4,5-c]pyridin-5-yl)-pyrimidin-2-yl]-(1H-indazol-6-yl)-amine], the IC50 was less than 0.1 µM. With `O=[N+]([O-])c1cnc(Nc2ccc(Cl)cc2)nc1N1CCC[C@H]1CO` [Example 1(055), 2-(4-chloro-phenylamino)-4-((2S)-2-hydroxymethyl-pyrrolidin-1-yl)-5-nitro-pyrimidine], the IC50 was less than 0.1 µM. On to `Nc1c(Cl)cc(Nc2ncc([N+](=O)[O-])c(N3CCc4[nH]cnc4C3)n2)cc1Cl` [Example 1(113), 2-(4-amino-3,5-dichlorophenylamino)-4-(1,4,6,7-tetrahydro-imidazo[4,5-c]pyridin-5-yl)-5-nitro-pyrimidine], for which the IC50 was less than 0.1 µM. On to `O=C(O)CCc1ccc(Nc2ncc([N+](=O)[O-])c(N3CCc4[nH]cnc4C3)n2)cc1` [Example 1(112), 2-(4-(2-carboxy-1-ethyl)-phenylamino)-4-(1,4,6,7-tetrahydro-imidazo[4,5-c]pyridin-5-yl)-5-nitro-pyrimidine], for which the IC50 was less than 0.1 µM. In the case of `O=C1CCCN1CCCNc1nc(Nc2ccc(CO)cc2)ncc1C(F)(F)F` [Example 2(052), 1-{3-[2-(4-Hydroxymethyl-phenylamino)-5-trifluoromethyl-pyrimidin-4-ylamino]-propyl}-pyrrolidin-2-one], the IC50 was less than 0.1 µM. As to `O=C1CCCN1CCCNc1nc(Nc2ccccc2)ncc1C(F)(F)F` [Example 1(031), 2-phenylamino-4-(3-(2-oxo-pyrrolidin-1-yl)-propyl-1-amino)-5-trifluoromethyl-pyrimidine], the IC50 is less than 0.1 µM. As for `COC(=O)NCCCNc1nc(Nc2ccc3cnn(C)c3c2)ncc1C(F)(F)F` [Example 7(022)], the IC50 is less than 0.1 µM. Consider `O=C1CCCN1CCCNc1nc(Nc2ccc(Cl)c(Cl)c2)ncc1C(F)(F)F` [Example 1(041), 2-(3,4-dichloro-phenylamino)-4-(3-(2-oxo-pyrrolidin-1-yl)-propyl-1-amino)-5-trifluoromethyl-pyrimidine], for which the IC50 is less than 0.1 µM.

With `NCCCCCNc1nc(Nc2ccc(Cl)cc2)ncc1C(F)(F)F` [Example 1(079), 2-(4-chloro-phenylamino)-4-(5-amino-pentyl-1-amino)-5-trifluoromethyl-pyrimidine], the IC50 is less than 0.1 µM. On to `CN1CCC(N(C)c2nc(Nc3ccc(Cl)cc3)ncc2[N+](=O)[O-])CC1` [Example 1(044), 2-(4-chloro-phenylamino)-4-(N-(1-methyl-piperidin-4-yl)-N-methyl-amino)-5-nitro-pyrimidine], for which the IC50 was less than 0.1 µM. Take `O=C(O)CCc1ccc(Nc2ncc(C(F)(F)F)c(NCCc3cccc(O)c3)n2)cc1` [Example 1(046), 2-(4-(2-carboxy-1-ethyl)-phenylamino)-4-(2-(3-hydroxyphenyl)-1-ethyl-amino)-5-trifluoromethyl-pyrimidine]: the IC50 is less than 0.1 µM. In the case of `NS(=O)(=O)c1ccc(Nc2ncc([N+](=O)[O-])c(NCCCN3CCCC3=O)n2)cc1` [Example 1(008), 2-(4-aminosulphonyl-phenylamino)-4-(3-(2-oxo-pyrrolidin-1-yl)-propyl-1-amino)-5-nitro-pyrimidine], the IC50 was less than 0.1 µM. Still for that read-out and setting: the result for `NC1CCC(Nc2nc(Nc3ccc(Cl)c(Cl)c3)ncc2C(F)(F)F)CC1` (stereo not drawn) [Example 1(109), 2-(3,4-dichlorophenylamino)-4-(4-amino-cyclohexylamino)-5-trifluoromethyl-pyrimidine] reads less than 0.1 µM.

These data come from patent publication US8420630B2 (Boehringer Ingelheim Pharma GmbH & Co. KG, priority 2001, dated 2013).
